Source: the NIST ThermoML archive (doi:10.1021/je100864e)
± gives the expanded uncertainty stated by the source.

Assay: osmotic coefficient (dimensionless); mn = molality of the nth substance listed, in mol/kg
Conditions: 298.15 K, Liquid, isopiestic method

For `O=C([O-])CC(O)(CC(=O)[O-])C(=O)O.[Na+].[Na+]` [disodium hydrogen citrate] + O, which osmotic coefficient (m1 = 0.2817) is on record?
Its osmotic coefficient is 0.806 ± 0.01.

And the osmotic coefficient (m1 = 0.2939)?
The osmotic coefficient was 0.792 ± 0.01.

What about the osmotic coefficient (m1 = 0.3096) of the same compound?
The osmotic coefficient was 0.77 ± 0.012.

And the osmotic coefficient (m1 = 0.3227)?
The osmotic coefficient was 0.773 ± 0.011.

What about the osmotic coefficient (m1 = 0.3856) of the same compound?
Its osmotic coefficient is 0.759 ± 0.012.

And the osmotic coefficient (m1 = 0.4011)?
The osmotic coefficient was 0.753 ± 0.012.

And the osmotic coefficient (m1 = 0.4258)?
The osmotic coefficient was 0.75 ± 0.013.

And the osmotic coefficient (m1 = 0.4592)?
The osmotic coefficient was 0.724 ± 0.014.

And the osmotic coefficient (m1 = 0.4761)?
The osmotic coefficient was 0.726 ± 0.014.

And the osmotic coefficient (m1 = 0.4822)?
Its osmotic coefficient is 0.728 ± 0.014.

What about the osmotic coefficient (m1 = 0.5501) of the same compound?
Its osmotic coefficient is 0.714 ± 0.014.

And the osmotic coefficient (m1 = 0.6381)?
The osmotic coefficient was 0.71 ± 0.015.

What about the osmotic coefficient (m1 = 0.6827) of the same compound?
The osmotic coefficient was 0.706 ± 0.015.

And the osmotic coefficient (m1 = 0.6915)?
The osmotic coefficient was 0.705 ± 0.015.

What about the osmotic coefficient (m1 = 0.6951) of the same compound?
Its osmotic coefficient is 0.707 ± 0.015.

And the osmotic coefficient (m1 = 0.6997)?
The osmotic coefficient was 0.708 ± 0.015.

And the osmotic coefficient (m1 = 1.018)?
Its osmotic coefficient is 0.689 ± 0.016.

And the osmotic coefficient (m1 = 1.09)?
Its osmotic coefficient is 0.688 ± 0.016.

And the osmotic coefficient (m1 = 1.107)?
The osmotic coefficient was 0.682 ± 0.016.

And the osmotic coefficient (m1 = 1.246)?
Its osmotic coefficient is 0.688 ± 0.016.

What about the osmotic coefficient (m1 = 1.329) of the same compound?
The osmotic coefficient was 0.682 ± 0.016.

What about the osmotic coefficient (m1 = 1.579) of the same compound?
Its osmotic coefficient is 0.694 ± 0.015.

And the osmotic coefficient (m1 = 1.635)?
Its osmotic coefficient is 0.694 ± 0.015.

And the osmotic coefficient (m1 = 1.659)?
Its osmotic coefficient is 0.69 ± 0.016.

And the osmotic coefficient (m1 = 1.731)?
Its osmotic coefficient is 0.69 ± 0.016.

And the osmotic coefficient (m1 = 1.788)?
Its osmotic coefficient is 0.701 ± 0.015.

What about the osmotic coefficient (m1 = 1.928) of the same compound?
The osmotic coefficient was 0.702 ± 0.015.

And the osmotic coefficient (m1 = 1.934)?
Its osmotic coefficient is 0.693 ± 0.015.

And the osmotic coefficient (m1 = 2)?
The osmotic coefficient was 0.704 ± 0.015.

And the osmotic coefficient (m1 = 2.327)?
The osmotic coefficient was 0.711 ± 0.014.

And the osmotic coefficient (m1 = 2.393)?
The osmotic coefficient was 0.712 ± 0.014.

And the osmotic coefficient (m1 = 2.439)?
Its osmotic coefficient is 0.711 ± 0.014.

With `O=C([O-])CC(O)(CC(=O)O)C(=O)O.[Na+]` [sodium dihydrogen citrate] + O as the compound, how does the osmotic coefficient (m1 = 0.3252) read?
Its osmotic coefficient is 0.849 ± 0.008.

And the osmotic coefficient (m1 = 0.4619)?
The osmotic coefficient was 0.829 ± 0.009.

And the osmotic coefficient (m1 = 0.5944)?
The osmotic coefficient was 0.82 ± 0.009.

And the osmotic coefficient (m1 = 0.7158)?
Its osmotic coefficient is 0.803 ± 0.01.

What about the osmotic coefficient (m1 = 0.7377) of the same compound?
The osmotic coefficient was 0.81 ± 0.01.

What about the osmotic coefficient (m1 = 0.7458) of the same compound?
Its osmotic coefficient is 0.805 ± 0.01.

What about the osmotic coefficient (m1 = 0.7565) of the same compound?
The osmotic coefficient was 0.801 ± 0.01.

What about the osmotic coefficient (m1 = 0.7666) of the same compound?
The osmotic coefficient was 0.798 ± 0.01.

What about the osmotic coefficient (m1 = 0.78) of the same compound?
Its osmotic coefficient is 0.81 ± 0.01.

And the osmotic coefficient (m1 = 0.9089)?
Its osmotic coefficient is 0.801 ± 0.01.

What about the osmotic coefficient (m1 = 1.096) of the same compound?
The osmotic coefficient was 0.813 ± 0.009.
